Test results taken from patent US9265845B2, “Imaging methods using engineered integrin binding peptides” (The Board of Trustees of the Leland Stanford Junior …, priority 2006, dated 2016).
Entries after “also recorded” stand apart in the source; their conditions may differ. Where two headings read alike, the source gives them in different places. Positions of bridges follow the written chain, without caps; N, C: chain ends. Residues, ends and D or L forms follow the SMILES beside them. No end group written: not given here.

Assays:
αvβ3 integrin [1] = biological target: T1, αvβ3 integrin (Homo sapiens, UniProt P05106+P06756); assay: Yeast-displayed peptide binding to soluble αvβ3 integrin, flow cytometry; details: yeast-displayed peptides
Description: The yeast display construct shown in FIG. 1A has the general orientation: Aga2-HA-engineered knottin—c-myc epitope, with the c-myc epitope at the carboxy terminus of the peptide. […] Bound integrin is detected with an anti-integrin antibody, labeled with FITC.
Below is a typical protocol to label a yeast library samples for sorting by flow cytometry (FACS): • 1. Want 2×10^6 cells, OD600 of […] • 2. Add 1 mL PBS/BSA (phosphate buffered saline containing 1 mg/mL bovine serum albumin) to wash cells • 3. Spin down cells 3 min at 8000 RPM • 4. Remove supernatant using vacuum • 5. Re-suspend in 40 μL PBS/BSA containing proper amount of integrin (100 nM [2.5 μL of stock αvβ3]; no anti-cmyc at this point) • 6. Incubate for 1.5 h at r.t (w/tumbling) • 7. Add 1:250 dilution of (chick anti-cmyc) to labeling solution • 8. […] Incubate 1 h at 4° C. (w/tumbling) • 10. Keep on ice after this step. • 11. Spin down cells 3 min at 8000 RPM, 4° C. and vacuum supernatant • 12. Repeat wash steps 2-4 • 13. Re-suspend in 40 μL PBS/BSA containing proper amount of secondary labels (secondary labeling is simultaneous) • i. Anti-integrin Ab (FITC conj): 1:25 dilution+Anti-chick (Alexa 555): 1:100 dilution • ii. Positive control: Anti-chick (Alexa 555): 1:100 dilution (for FACS compensation) • iii. Positive control: Anti-chick (Alexa 488): 1:100 dilution (for FACS compensation) • 14. Incubate on ice 30 min and keep in dark (lid on ice bucket) • 15. Spin down cells at 3 min at 8000 RPM, 4° C. and vacuum supernatant • 16. Repeat steps 2-4: Add 1 mL PBS/BSA, pellet cells, vacuum supernatant • 17. Leave pelleted cells on ice until use. Fluorescent Cell Sorting
Commercially available flow cytometers can measure fluorescence emissions at the single-cell level at four or more wavelengths, at a rate of approximately 50,000 cells per second (Ashcroft and Lopez, 2000). Typical flow cytometry data are shown in FIG. 4-7, in which yeast have been labeled with two different color fluorescent probes to measure protein expression levels and bound soluble ligand (in this case integrin receptor). A ‘diagonal’ population of cells results due to variation in protein expression levels on a per cell basis: cells that express more protein will bind more ligand. The equilibrium binding constant (Kd) can be determined by titration of soluble ligand, and the dissociation rate constant (koff) can be measured through competition binding of unlabeled ligand. With yeast, a monodispersity of tethered proteins exists over the cell surface, and soluble ligand are used for binding and testing, such that avidity effects are not observed, unlike other display methods using immobilized ligands. To date, the properties of most proteins expressed on the yeast cell surface mimic what is seen in solution in terms of stability and binding affinity (Bader et al., 2000; Feldhaus et al., 2003; Holler et al., 2000; VanAntwerp and Wittrup, 2000). See, also, Weaver-Feldhaus et al., “Directed evolution for the development of conformation-specific affinity reagents using yeast display,” Protein Engineering Design and Selection Sep. 26, 2005 18(11):527-536.
Cell sorting was carried out on a FACSVantage (BD Biosciences) multiparameter laser flow cytometer and cell sorter. Before sorting, fluorescent staining was carried out as described above, so that analysis of integrin binding and c-myc expression levels were detected, as described above. […]

[2] = tested on: subcutaneous U87MG glioblastoma tumors; assay: In vivo optical imaging of Cy5.5-labeled peptides in U87MG xenograft mice; design: species or system mouse
Description: FIG. 8A is a series of 4 pictures showing in vivo imaging of Cy5.5-labeled polypeptides in mice. 1.5 nmol of Cy5.5-labeled EETI-RGD peptide 2.5D or other indicated peptide was injected by tail vein into U87MG glioblastoma xenograft mouse models and imaged at various time points post injection. Arrows indicate the position of tumors. […] Cy5.5-labeled FN-RDG negative control (bottom line, open squares) indicates background levels.
Whole-body imaging of subcutaneous mouse xenografts were imaged with the IVIS 200 system (Xenogen) and quantified with Living Image 2.50.1 software.

U87MG tumor = assay: MicroPET imaging and biodistribution of radiolabeled peptides in U87MG tumor-bearing mice; assay type: in vivo, mouse; details: radiolabeled peptides, U87MG tumor-bearing mice
In short: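 Female athymic nude mice carrying subcutaneous U87MG xenografts (8–10 mm) received ~100 μCi 64Cu-DOTA peptides i.v. (tail vein); static microPET scans under 2% isoflurane. %ID/g obtained from ROIs on decay-corrected images assuming 1 g/mL density, without attenuation correction. Biodistribution measured by γ-counting of excised tissues, reported as %ID/g mean±SD.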

[3] = biological target: T2, αvβ3 integrin on U87MG glioblastoma cells (Homo sapiens, UniProt P05106+P06756); assay: 125I-echistatin competition binding to U87MG glioblastoma cells; details: read-out: IC50, competition with 125I-echistatin, U87MG tumor cells
T2 construct: host or cells: U87MG glioblastoma cells
Description: FIG. 9 is a graph showing normalized competition plotted against peptide concentration in an integrin-binding assay on U87MG glioblastoma cells.
U87MG glioblastoma cells, which express ˜10^5 αvβ3 integrin receptors per cell, were used for these studies. […] An EETI-based polypeptide with a scrambled RDG amino acid sequence, designated FN-RDG, served as a negative control.
Half-maximal inhibitory concentrations (IC50) […] of data measured on at least three separate days. Data for unlabeled and Cy5.5-labeled peptides are shown. Site-specific labeling of RGD miniproteins with a near-infrared optical imaging probe: The free N-terminal amine of our polypeptides was used for site-specific attachment of Cy5.5, a near infrared imaging probe.
An αvβ3 integrin receptor binding assay is performed to determine the relative affinities of the mock-PET tracers compared to their unlabeled polypeptides. Briefly, 2×10^5 U87MG glioblastoma cells are incubated with 0.06 nM ^125I-echistatin in integrin binding buffer (25 mM Tris-HCl, pH 7.4, 150 mM NaCl2 1 mM CaCl2 1 mM MgCl2, 1 mM MnCl2, 0.1% BSA), in the presence of increasing concentrations of mock-PET tracers at room temperature. After incubation for 3 h, cells are pelleted by centrifugation at 1500 RPM and washed three times in binding buffer to remove unbound ligands. The radioactivity remaining in the cell pellet is measured by γ counting. IC50 values are determined by plotting the % competition and using a four-point binding equation (Kaleidagraph) to fit the data.

α5β1 integrin = α5β1 integrin (Homo sapiens, UniProt P05556+P08648); assay: Competition of 125I-echistatin to detergent-solubilized plate-coated integrin; assay type: binding; details: 0.06 nM 125I echistatin, 5 nM and 50 nM peptide
In short: (§1)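 Detergent-solubilized integrins were coated on plates. Displacement of 0.06 nM 125I-echistatin by unlabeled peptide was measured at 5 nM and 50 nM. Experiments were run in triplicate.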

αiibβ3 integrin = αiibβ3 integrin (Homo sapiens, UniProt P05106+P08514); assay: as above; assay type: binding; details: 0.06 nM 125I echistatin, 5 nM and 50 nM peptide
In short: as §1

αvβ3 integrin [4] = biological target: T1, αvβ3 integrin; assay: as above; assay type: binding; details: 0.06 nM 125I echistatin, 5 nM and 50 nM peptide
In short: as §1

αvβ5 integrin = αvβ5 integrin (Homo sapiens, UniProt P06756+P18084); assay: as above; assay type: binding; details: 0.06 nM 125I echistatin, 5 nM and 50 nM peptide
In short: as §1

U87MG glioblastoma cells [5] = assay: Blocking of U87MG cell adhesion to vitronectin-coated plates; assay type: cell-based; details: vitronectin-coated wells
Text: (§2) The present engineered peptides may be used in a variety of ways. If the peptides are attached to a surface, they may be used to attract/recruit cells to grow on the surface. For example, the present peptides may be applied to prosthetic devices, implants, bone grafts, and the like to promote tissue growth and healing at the site. They may be attached to culture dishes and promote attachment and differentiation of cells in culture. In addition, the present engineered peptides may be used to modulate cell binding to selected integrins such as α5β1, αvβ3 and αvβ5, particularly αvβ3, by adding the peptides to a cell culture to prevent cells expressing these integrins from adhering to a substrate. […] Also, the present 2.5F, 2.5D and 1.5B peptides were tested for blocking adhesion of U87MG glioblastoma cells to fibronectin-coated plates.
(§3) In another experiment, the ability of engineered knottin peptides to block U87MG cell adhesion to vitronectin- and fibronectin-coated microtiter plates. Vitronectin is a natural ligand for several integrins, including αvβ3 and αvβ5. The RGD-containing peptides were all able to inhibit U87MG cell adhesion to vitronectin-coated plates in a dose-responsive manner. […] Fibronectin also binds to several integrins, (including αvβ3 and α5β1), but the α5β1 integrin receptor is generally selective for fibronectin.
Whether the engineered AgRP peptides could block vitronectin-mediated adhesion to the U87MG cells was tested using an analogous assay. […] The AgRP peptides may not effectively block U87MG adhesion compared to the K562-αvβ3 cells because the αvβ5 integrins co-expressed on the surface of the U87MG cells could also contribute to vitronectin-mediated adhesion and compensate for the loss of αvβ3 integrin function.

U87MG glioblastoma cells [6] = assay: Blocking of U87MG cell adhesion to fibronectin-coated plates; assay type: cell-based
Text: as §2, §3

K562-αvβ3 cells = assay: Inhibition of vitronectin-mediated adhesion of K562-αvβ3 cells; assay type: cell-based; details: vitronectin-coated microtiter wells
Description: To determine whether the engineered AgRP peptides could inhibit cell adhesion mediated by vitronectin, the primary ligand for αvβ3 integrin, K562-αvβ3 cells were incubated with varying concentrations of peptides in microtiter wells coated with vitronectin to determine the ability of the peptides to inhibit cell adhesion. […] This difference may be a result of multivalent interactions between the cell surface αvβ3 integrins and the immobilized vitronectin, thereby making it more difficult for the peptides to compete.

αvβ3 integrin [7] = biological target: T1, αvβ3 integrin; details: cited from earlier work

Molecule | integrin binding compared in words (αvβ3 integrin [1]) | tumor uptake / imaging signal of Cy5.5-labeled peptide, in words [2] | PET tumor targeting / imaging signal, in words (U87MG tumor) | IC50 ([3]; Cy5.5-labeled peptides (Cy5.5: Yes)) | IC50 ([3]; unlabeled peptides (Cy5.5: No)) | binding to α5β1 integrin, in words (α5β1 integrin) | binding to αiibβ3 integrin, in words (αiibβ3 integrin) | binding to αvβ3 integrin, in words (αvβ3 integrin [4]) | binding to αvβ5 integrin, in words (αvβ5 integrin) | IC50 (U87MG glioblastoma cells [5]) | blocking of U87MG cell adhesion to fibronectin, in words (U87MG glioblastoma cells [6]) | IC50 (K562-αvβ3 cells) | Kd (αvβ3 integrin [7])
CC(C)C[C@@H]1NC(=O)[C@@H]2CSSC[C@@H](C(=O)NCC(=O)O)NC(=O)[C@H](Cc3ccccc3)NC(=O)CNC(=O)[C@H](CC(N)=O)NC(=O)[C@@H]3CCCN3C(=O)CNC(=O)[C@@H]3CSSC[C@H](NC(=O)[C@H](CO)NC(=O)[C@H](CO)NC(=O)[C@H](C)NC(=O)[C@@H]4CCCN4C(=O)[C@H](CO)NC(=O)[C@H](CC(=O)O)NC(=O)CNC(=O)[C@H](CCCNC(=N)N)NC(=O)CNC(=O)[C@H]([C@@H](C)O)NC(=O)[C@H](C(C)C)NC(=O)[C@@H](NC(=O)CN)CSSC[C@H](NC(=O)CNC(=O)[C@H](C)NC1=O)C(=O)N[C@@H](C(C)C)C(=O)N3)C(=O)N[C@@H](CCCCN)C(=O)N[C@@H](CCC(N)=O)C(=O)N[C@@H](CC(=O)O)C(=O)N[C@@H](CO)C(=O)N[C@@H](CC(=O)O)C(=O)N2 [RGD-EETI#3] (H-GCVTGRGDSPASSCKQDSDCLAGCVCGPNGFCG-OH; disulfide 2-24, 14-26, 20-32; N-terminus and C-terminus assumed) | binds better than the 10th domain of fibronectin | significantly weaker imaging signals | significantly weaker imaging signals | – | – | – | – | – | – | – | – | – | –
ECESGPCCRNCKFLKEGTICKRARGDDMDDYCNGKTCDCPRNPHKGPAT (disulfide 2-11, 7-32, 8-37, 20-39 (inferred)) [Echistatin, echistatin] | – | – | – | 2.6 ± 0.2 nM | 4.9 ± 1 nM | binds strongly; also recorded: bound strongly | binds strongly; also recorded: bound strongly | binds strongly; also recorded: bound strongly | binds strongly; also recorded: bound strongly | 5.8 nM | blocked adhesion; also recorded: able to block | 3.2 ± 2.7 nM | 0.3 nM
